Measured values taken from US6620828B2, “Thiazole compounds and pharmaceutical compositions for inhibiting protein kinases and methods for their use” (Agouron Pharmaceuticals, Inc., priority 1999, dated 2003).

Tested on: human umbilical vein endothelial cells (HUVEC)
Experiment: HUVEC proliferation assay
Type: cell-based
Conditions: Homo sapiens, HUVEC, crude combinatorial urea library; for inhibition at 0.01 µM: 10 nM, read-out: Inhibition of HUVEC Proliferation % inhibition @ 10 nM; for inhibition at 0.05 µM: 50 nM, read-out: Inhibition of HUVEC Proliferation % inhibition @ 50 nM
Procedure: HUVEC Proliferation Assay
This assay determines the ability of a test compound to inhibit the growth factor-stimulated proliferation of human umbilical vein endothelial cells (“HUVEC”). HUVEC cells (passage 3-4, Clonetics, Corp.) were thawed into EGM2 culture medium (Clonetics Corp) in T75 flasks. Fresh EGM2 medium was added to the flasks 24 hours later. Four or five days later, cells were exposed to another culture medium (F12K medium supplemented with 10% fetal bovine serum (FBS), 60 μg/ml endothelial cell growth supplement (ECGS), and 0.1 mg/ml heparin). Exponentially-growing HUVEC cells were used in experiments thereafter. Ten to twelve thousand HUVEC cells were plated in 96-well dishes in 100 μl of rich, culture medium (described above). The cells were allowed to attach for 24 hours in this medium. The medium was then removed by aspiration and 105 μl of starvation media (F12K+1% FBS) was added to each well. After 24 hours, 15 μl of test agent dissolved in 1% DMSO in starvation medium or this vehicle alone was added into each treatment well; the final DMSO concentration was 0.1%. One hour later, 30 μl of VEGF (30 ng/ml) in starvation media was added to all wells except those containing untreated controls; the final VEGF concentration was 6 ng/ml. Cellular proliferation was quantified 72 hours later by MTT dye reduction, at which time cells were exposed for 4 hours MTT (Promega Corp.). Dye reduction was stopped by addition of a stop solution (Promega Corp.) and absorbance at 595 λ was determined on a 96-well spectrophotometer plate reader.
IC50 values were calculated by curve-fitting the response of A^595 to various concentrations of the test agent; typically, seven concentrations separated by 0.5 log were employed, with triplicate wells at each concentration. For screening compound library plates, one or two concentrations (one well per concentration) were employed, and the % inhibition was calculated by the following formula:
% inhibition=(control−test) divided by (control−starvation) […]
control=A^595 when VEGF is present without test agent test=A^595 when VEGF is present with test agent starvation=A^595 when VEGF and test agent are both absent.

| SMILES | inhibition at 0.01 µM [%] | inhibition at 0.05 µM [%] |
| --- | --- | --- |
| COc1cccc(C(=O)Nc2cccc(-c3csc(-c4sc(NC(=O)NCC5CCC=CO5)nc4N)n3)c2)c1 (stereo not drawn) | -5 | 33 |
| CCN(CC)CCNC(=O)Nc1nc(N)c(-c2nc(-c3cccc(NC(=O)c4cccc(OC)c4)c3)cs2)s1 | -38 | 39 |
| COc1cccc(C(=O)Nc2cccc(-c3csc(-c4sc(NC(=O)NC5CC(C)(C)NC(C)(C)C5)nc4N)n3)c2)c1 | -13 | 29 |
| COc1cccc(C(=O)Nc2cccc(-c3csc(-c4sc(NC(=O)NCCc5ccc(N)cc5)nc4N)n3)c2)c1 | -3 | 3 |
| COc1cccc(C(=O)Nc2cccc(-c3csc(-c4sc(NC(=O)NCCCN5CCOCC5)nc4N)n3)c2)c1 | 19 | 83 |
| COc1cccc(C(=O)Nc2cccc(-c3csc(-c4sc(NC(=O)NCCC(C)C)nc4N)n3)c2)c1 | 25 | 18 |
| COc1cccc(C(=O)Nc2cccc(-c3csc(-c4sc(NC(=O)NCC5CCCO5)nc4N)n3)c2)c1 (stereo not drawn) | 46 | 87 |
| COc1cccc(C(=O)Nc2cccc(-c3csc(-c4sc(NC(=O)NCCCN5CCCC5=O)nc4N)n3)c2)c1 | 28 | 123 |
| COc1cccc(C(=O)Nc2cccc(-c3csc(-c4sc(NC(=O)NCCC5CCCN5C)nc4N)n3)c2)c1 (stereo not drawn) | 39 | 0 |
| COc1cccc(C(=O)Nc2cccc(-c3csc(-c4sc(NC(=O)NCCN5CCCCC5)nc4N)n3)c2)c1 | 22 | 25 |
| COc1cccc(C(=O)Nc2cccc(-c3csc(-c4sc(NC(=O)NCc5ccccc5)nc4N)n3)c2)c1 | -11 | 114 |
| COc1cccc(C(=O)Nc2cccc(-c3csc(-c4sc(NC(=O)NCCCN5CCCCC5C)nc4N)n3)c2)c1 (stereo not drawn) | -18 | 55 |
| CCCCN(CCCC)CCCNC(=O)Nc1nc(N)c(-c2nc(-c3cccc(NC(=O)c4cccc(OC)c4)c3)cs2)s1 | -5 | 62 |
| CCN(CC)CCCNC(=O)Nc1nc(N)c(-c2nc(-c3cccc(NC(=O)c4cccc(OC)c4)c3)cs2)s1 | -7 | 45 |
| COc1cccc(C(=O)Nc2cccc(-c3csc(-c4sc(NC(=O)NCC(N)=O)nc4N)n3)c2)c1 | 12 | 25 |
| COc1cccc(C(=O)Nc2cccc(-c3csc(-c4sc(NC(=O)NCC(C)C)nc4N)n3)c2)c1 | -1 | -23 |
| COc1cccc(C(=O)Nc2cccc(-c3csc(-c4sc(NC(=O)NCCc5cccnc5)nc4N)n3)c2)c1 | 35 | 97 |
| COc1cccc(C(=O)Nc2cccc(-c3csc(-c4sc(NC(=O)NCCO)nc4N)n3)c2)c1 | 38 |  |
| COc1cccc(C(=O)Nc2cccc(-c3csc(-c4sc(NC(=O)N[C@@H](CC(N)=O)C(N)=O)nc4N)n3)c2)c1 | 19 | 23 |
| CNC(=O)CNC(=O)Nc1nc(N)c(-c2nc(-c3cccc(NC(=O)c4cccc(OC)c4)c3)cs2)s1 | 42 | 23 |
| COc1cccc(C(=O)Nc2cccc(-c3csc(-c4sc(NC(=O)NCCc5cncn5C)nc4N)n3)c2)c1 | -15 | 15 |
| CCN1CCCC1CNC(=O)Nc1nc(N)c(-c2nc(-c3cccc(NC(=O)c4cccc(OC)c4)c3)cs2)s1 (stereo not drawn) | -29 | 108 |
| COc1cccc(C(=O)Nc2cccc(-c3csc(-c4sc(NC(=O)NC(C)CN(C)C)nc4N)n3)c2)c1 (stereo not drawn) | 12 | 28 |
| COc1cccc(C(=O)Nc2cccc(-c3csc(-c4sc(NC(=O)NCCCN5CCCC5)nc4N)n3)c2)c1 | 1 | 101 |
| COc1cccc(C(=O)Nc2cccc(-c3csc(-c4sc(NC(=O)NCCN(C(C)C)C(C)C)nc4N)n3)c2)c1 | 2 | 22 |
| COc1cccc(C(=O)Nc2cccc(-c3csc(-c4sc(NC(=O)NCCCN5CCN(C)CC5)nc4N)n3)c2)c1 | -9 | 67 |
| COc1cccc(C(=O)Nc2cccc(-c3csc(-c4sc(NC(=O)NCCN5CCNC5=O)nc4N)n3)c2)c1 | 0 | 35 |

| SMILES | inhibition at 0.01 µM [%] | inhibition at 0.05 µM [%] |
| --- | --- | --- |
| COc1cccc(C(=O)Nc2cccc(-c3csc(-c4sc(NC(=O)NCCC(N)=O)nc4N)n3)c2)c1 | 30 | 1 |
| CCN(CC)CCCC(C)NC(=O)Nc1nc(N)c(-c2nc(-c3cccc(NC(=O)c4cccc(OC)c4)c3)cs2)s1 (stereo not drawn) | 7 | 68 |
| COc1cccc(C(=O)Nc2cccc(-c3csc(-c4sc(NC(=O)NCCCCN(C)C)nc4N)n3)c2)c1 | -2 | 71 |
| COc1cccc(C(=O)Nc2cccc(-c3csc(-c4sc(NC(=O)NCCCCCCN(C)C)nc4N)n3)c2)c1 | 32 | 24 |
| COc1cccc(C(=O)Nc2cccc(-c3csc(-c4sc(NC(=O)NCC(C)N(C)C)nc4N)n3)c2)c1 (stereo not drawn) | -22 | -3 |
| COc1cccc(C(=O)Nc2cccc(-c3csc(-c4sc(NC(=O)NCCCN5CCCCCC5)nc4N)n3)c2)c1 | 2 | 117 |
| COc1cccc(C(=O)Nc2cccc(-c3csc(-c4sc(NC(=O)NCCCN5CCCCC5)nc4N)n3)c2)c1 | 15 | 49 |
| COc1cccc(C(=O)Nc2cccc(-c3csc(-c4sc(NC(=O)NC5CCS(=O)(=O)C5)nc4N)n3)c2)c1 (stereo not drawn) | 9 | 86 |
| COc1cccc(C(=O)Nc2cccc(-c3csc(-c4sc(NCCC(=O)NCC(=O)O)nc4N)n3)c2)c1 | -34 | 7 |
| COc1cccc(C(=O)Nc2cccc(-c3csc(-c4sc(NC(=O)NCC#N)nc4N)n3)c2)c1 | -3 | 3 |
| COc1cccc(C(=O)Nc2cccc(-c3csc(-c4sc(NC(=O)NCC(=O)NO)nc4N)n3)c2)c1 | -1 | 37 |
| COc1cccc(C(=O)Nc2cccc(-c3csc(-c4sc(NC(=O)NCC(=O)O)nc4N)n3)c2)c1 | 42 | 52 |
| COc1cccc(C(=O)Nc2cccc(-c3csc(-c4sc(NC(=O)NCCS(=O)(=O)O)nc4N)n3)c2)c1 | 45 | 46 |
| CCC(O)CNC(=O)Nc1nc(N)c(-c2nc(-c3cccc(NC(=O)c4cccc(OC)c4)c3)cs2)s1 (stereo not drawn) | 30 | 135 |
| COc1cccc(C(=O)Nc2cccc(-c3csc(-c4sc(NC(=O)NCC(C)(C)CO)nc4N)n3)c2)c1 | 7 | 88 |
| CCN1CC(NC(=O)Nc2nc(N)c(-c3nc(-c4cccc(NC(=O)c5cccc(OC)c5)c4)cs3)s2)CN1CC | -24 | 45 |
| CCN(CCNC(=O)Nc1nc(N)c(-c2nc(-c3cccc(NC(=O)c4cccc(OC)c4)c3)cs2)s1)c1cccc(C)c1 | -10 | 125 |
| COc1cccc(C(=O)Nc2cccc(-c3csc(-c4sc(NC(=O)NCC(=N)N)nc4N)n3)c2)c1 | 27 | 46 |
| COc1cccc(C(=O)Nc2cccc(-c3csc(-c4sc(NC(=O)NCC(C)(C)C)nc4N)n3)c2)c1 | 44 | 34 |
| COc1cccc(C(=O)Nc2cccc(-c3csc(-c4sc(NC(=O)NCC5(O)CCCCC5)nc4N)n3)c2)c1 | 4 | 2 |
| COc1cccc(C(=O)Nc2cccc(-c3csc(-c4sc(NC(=O)NCCc5c[nH]cn5)nc4N)n3)c2)c1 | 1 | -43 |
| COc1cccc(C(=O)Nc2cccc(-c3csc(-c4sc(NC(=O)NCS(=O)(=O)O)nc4N)n3)c2)c1 | -8 | 8 |
| COc1cccc(C(=O)Nc2cccc(-c3csc(-c4sc(NC(=O)NCCCN(C)c5ccccc5)nc4N)n3)c2)c1 | 17 | 98 |
| COc1cccc(C(=O)Nc2cccc(-c3csc(-c4sc(NC(=O)NCc5ccc(S(N)(=O)=O)cc5)nc4N)n3)c2)c1 | 26 | 36 |
| COc1cccc(C(=O)Nc2cccc(-c3csc(-c4sc(NC(=O)NCCCN(CCO)CCO)nc4N)n3)c2)c1 | 2 | 65 |
| COc1cccc(C(=O)Nc2cccc(-c3csc(-c4sc(NC(=O)NCCc5ccncc5)nc4N)n3)c2)c1 | -5 | 97 |
